Holding throughout (format): in vivo
One assay has as its system Helicoverpa armigera. Kind of assay: Test Example 17: Mortality Test for Helicoverpa armigera (Comparative Test 1). Particulars: 144 h, 3-instar larvae, after 6 days; for mortality at 3.3 ppm: concentration 3.3 ppm; for mortality at 10 ppm: concentration 10 ppm; for mortality at 33 ppm: concentration 33 ppm; for mortality at 100 ppm: concentration 100 ppm; for mortality at 0.1 ppm: concentration 0.1 ppm; for mortality at 0.3 ppm: concentration 0.3 ppm; for mortality at 1 ppm: concentration 1 ppm. The method, then:
10% emulsifiable concentrates of the compound of the present invention and a comparative compound were diluted with water containing a spreader to prepare drug solutions in a predetermined concentration. In these drug solutions, a leaf of Canarium album was immersed for about 10 seconds and was air-dried and then put into a petri dish. In the petri dish, seven 3-instar larvae of Helicoverpa armigera per petri dish were released and the petri dish was capped with a lid having pores and stored in a thermostat room of 25° C. After 2 days of the treatment, an artificial feed (1 cm^3) was added into the petri dish. The number of killed larvae after 6 days was measured and the mortality was calculated from the following calculation formula: Mortality (%)=(number of killed larvae/number of released larvae)×100. Here, the test was carried out with two replications.

Assay [1] deals with Frankliniella occidentalis. Kind of assay: Test Example 18: Mortality Test for Frankliniella occidentalis (Comparative Test 2). As to conditions: 48 h. The method, then:
In a styrol cup having an inner diameter of 7 cm, a wet filtration paper was laid, and on the paper, a leaf of kidney bean cut out so as to have the same diameter as the inner diameter of the cup was laid, followed by inoculating ten 1 instar larvae of Frankliniella occidentalis per leaf to the leaf. 10% emulsifiable concentrates of the compound of the present invention and a comparative compound were diluted with water containing a spreader to prepare drug solutions in a predetermined concentration. The drug solutions were dusted using a rotary dusting tower in an amount of 2.5 mL per styrol cup, and the cup was capped and stored in a thermostat room of 25° C. The number of killed larvae after 2 days was measured and the mortality was calculated from the following calculation formula: Mortality (%)=(number of killed larvae/number of released larvae)×100. Here, the test was carried out with two replications.

In another assay the test system is Homona magnanima. In words: Test Example 3: Mortality Test for Homona magnanima. As to conditions: 144 h. The method, then: (§1) A 10% emulsifiable concentrate of the compound of the present invention (depending on the type of the compound, a 10% wettable powder was subjected to the test) was diluted with water containing a spreader to prepare a drug solution in a concentration of 100 ppm. In this drug solution, a leaf of canarium album was immersed for about 10 seconds and was air-dried and then put into a petri dish. In the petri dish, five 2 instar larvae of Homona magnanima per petri dish were released and the petri dish was capped and stored in a thermostat room of 25° C. The number of killed larvae after 6 days was measured and the mortality was calculated from the same calculation formula as that in Test Example 1. Here, the test was carried out with two replications.

In a further assay the test system is Liriomyza trifolii. Kind of assay: Test Example 13: Mortality Test for Liriomyza trifolii. As to conditions: 144 h, drug solution 500 ppm, kidney bean leaf with eggs immersed, after 6 days. The method, then:
as §1, with “500” for “100”, “kidney bean on which Liriomyza trifolii laid eggs (10 eggs/leaf) and which was cut out to a diameter of 7 cm” for “canarium album”, “laid on” for “put into”, “wet filtration paper laid in a styrol cup having an inner diameter” for “petri dish. In the petri dish, five 2 instar larvae”, “7 cm. The styrol cup” for “Homona magnanima per petri dish were released and the petri dish”

A further assay relates to Spodoptera litura. In words: Test Example 2: Mortality Test for Spodoptera litura. Particulars: 144 h. The method, then: as §1, with “10” for “100”, “Spodoptera litura” for “Homona magnanima”
The test system of the next assay is Plutella xylostella. In words: Test Example 1: Mortality Test for Plutella xylostella. Particulars: 144 h. The method, then: as §1, with “10” for “100”, “Plutella xylostella” for “Homona magnanima”, “following” for “same”, “formula: Mortality (%)=(number of killed larvae/number of released larvae)×100.” for “formula as that in Test Example 1.”
For another assay, the system named is Myzus persicae. In words: Test Example 10: Mortality Test for Myzus persicae. As to conditions: 144 h. The method, then: In a glass petri dish having an inner diameter of 3 cm, a wet absorbent cotton was laid, and on the cotton, a leaf of canarium album cut out so as to have the same diameter as the inner diameter of the petri dish was laid, followed by releasing 4 apterous imagines of Myzus persicae on the leaf. After one day, 10% emulsifiable concentrate of the compound of the present invention (depending on the type of the compound, a 10% wettable powder was subjected to the test) was diluted with water containing a spreader to prepare a drug solution in a concentration of 500 ppm. The drug solution was dusted using a rotary dusting tower (2.5 mg/cm^2) and the petri dish was capped and stored in a thermostat room of 25° C. The number of killed imagines after 6 days was measured and the mortality was calculated from the same calculation formula as that in Test Example 1. Here, the test was carried out with two replications.

The subject of the next assay is Planococcus kraunhiae. Kind of assay: Test Example 11: Mortality Test for Planococcus kraunhiae. As to conditions: 144 h. The method, then: In a styrol cup having an inner diameter of 7 cm, a wet filtration paper was laid, and on the paper, a leaf of kidney bean cut out so as to have the same diameter as the inner diameter of the cup was laid, followed by inoculating ten 1 instar larvae of Planococcus kraunhiae per leaf to the leaf. A 10% emulsifiable concentrate of the compound of the present invention (depending on the type of the compound, a 10% wettable powder was subjected to the test) was diluted with water containing a spreader to prepare a drug solution in a concentration of 500 ppm. The drug solution was dusted using a rotary dusting tower in an amount of 2.5 mL per styrol cup and the cup was capped and stored in a thermostat room of 25° C. The number of killed larvae after 6 days was measured and the mortality was calculated from the same calculation formula as that in Test Example 1. Here, the test was carried out with two replications.

The subject of a further assay is Bemisia argentifolii. In words: Test Example 9: Mortality Test for Bemisia argentifolii. Particulars: in Solanum lycopersicum, 144 h. The method, then:
In a styrol cup having an inner diameter of 7 cm, a wet filtration paper was laid, and on the paper, a cut-out leaf of tomato on which Bemisia argentifolii laid eggs (10 eggs/leaf) was laid. A 10% emulsifiable concentrate of the compound of the present invention (depending on the type of the compound, a 10% wettable powder was subjected to the test) was diluted with water containing a spreader to prepare a drug solution in a concentration of 500 ppm. The drug solution was dusted using a rotary dusting tower in an amount of 2.5 mL per styrol cup and the cup was capped and stored in a thermostat room of 25° C. The number of killed larvae after 6 days was measured and the mortality was calculated from the same calculation formula as that in Test Example 1. Here, the test was carried out with two replications.

Some results are limits rather than exact numbers.

Turning to `CNC(=O)NC(=O)c1ccc(C2=NOC(c3cc(Cl)cc(Cl)c3)(C(F)(F)F)C2)cc1C` (centres unmarked) [Comparative compound A, reference compound], in the assay on Helicoverpa armigera, the mortality at 3.3 ppm stood at 21.4%, the mortality at 10 ppm was 92.9%, the mortality at 33 ppm was 100% and the mortality at 100 ppm is 100%.
In the assay on Helicoverpa armigera, `COC(=NC(=O)c1ccc(C2=NOC(c3cc(Cl)cc(Cl)c3)(C(F)(F)F)C2)cc1C)SC` (centres unmarked) [Comparative compound B, reference compound] had a mortality at 3.3 ppm of 35.7%, a mortality at 10 ppm of 71.4%, a mortality at 33 ppm of 85.7% and a mortality at 100 ppm of 100%.
In assay [1], `O=C(N[C@H]1C[C@@H]1c1ccccc1)c1ccc(C2=NOC(c3ccc(Cl)c(Cl)c3)(C(F)(F)F)C2)cc1` (some centres unmarked) [Comparative compound C] showed a mortality at 3.3 ppm of 0%, a mortality at 10 ppm of 0%, a mortality at 33 ppm of 0% and a mortality at 100 ppm of 0%.
Regarding `CCNC(=O)NC(=O)c1ccc(C2=NOC(c3cc(Cl)cc(Cl)c3)(C(F)(F)F)C2)cc1C` (centres unmarked) [Comparative compound D], in [1], the mortality at 3.3 ppm is 0%, the mortality at 10 ppm came to 45.7%, the mortality at 33 ppm amounted to 100% and the mortality at 100 ppm was 100%.
The molecule `COC(N)=NC(=O)c1ccc(C2=NOC(c3cc(Cl)cc(Cl)c3)(C(F)(F)F)C2)cc1C` (centres unmarked) [No. 2-003, N-[Amino(methoxy)methylidene]-4-[5-(3,5-dichlorophenyl)-5-trifluoromethyl-4,5-dihydroisoxazole-3-yl]-2-methyl benzoic acid amide] gave a mortality at 100 ppm in the assay with Homona magnanima not below 80%. In the assay with Helicoverpa armigera, this molecule came in with a mortality at 0.1 ppm of 57.1%, a mortality at 0.3 ppm of 85.7%, a mortality at 1 ppm of 100% and a mortality at 3.3 ppm of 100%. This molecule also had a mortality at 10 ppm in the assay with Helicoverpa armigera of 100%.
In the case of `CSC(N)=NC(=O)c1ccc(C2=NOC(c3cc(Cl)cc(Cl)c3)(C(F)(F)F)C2)cc1C` (centres unmarked) [No. 2-010, N-(Amino(methylthio)methylidene)-4-(5-(3,5-dichlorophenyl)-5-trifluoromethyl-4,5-dihydroisoxazole-3-yl)-2-methyl benzoic acid amide], the mortality at 100 ppm with Homona magnanima is not below 80%. In the assay on Liriomyza trifolii, this molecule displayed a mortality at 500 ppm not below 80%.
`CNC(N)=NC(=O)c1ccc(C2=NOC(c3cc(Cl)cc(Cl)c3)(C(F)(F)F)C2)cc1C` (centres unmarked) [No. 2-012, N-[Amino(methylamino)methylidene]-4-[5-(3,5-dichlorophenyl)-5-trifluoromethyl-4,5-dihydroisoxazole-3-yl]-2-methyl benzoic acid amide]: the mortality at 100 ppm with Spodoptera litura and with Plutella xylostella was not below 80% each time.
Take `CNC(=NC(=O)c1ccc(C2=NOC(c3cc(Cl)cc(Cl)c3)(C(F)(F)F)C2)cc1C)OC` (centres unmarked) [No. 3-001, N-[Methoxy(methylamino)methylidene]-4-[5-(3,5-dichlorophenyl)-5-trifluoromethyl-4,5-dihydroisoxazole-3-yl]-2-methyl benzoic acid amide]: the mortality at 500 ppm with Myzus persicae was not below 80%. Also, in the assay on Homona magnanima, the mortality at 100 ppm is not below 80%. In addition, the mortality at 500 ppm with Planococcus kraunhiae is not below 80%. This molecule came in with a mortality at 500 ppm in the assay on Bemisia argentifolii not below 80%. In the assay with Helicoverpa armigera, the mortality at 0.1 ppm was 0%, the mortality at 0.3 ppm was determined as 21.4%, the mortality at 1 ppm was 71.4% and the mortality at 3.3 ppm worked out at 100%. This molecule yielded a mortality at 10 ppm in the assay with Helicoverpa armigera of 100%.

By mortality is commonly meant the percentage killed. A high value points to a strong lethal effect.

For the origin of these results see US8119671B2, “Isoxazoline-substituted benzamide compound and pest control agent” (Nissan Chemical Industries, Ltd., priority 2007, dated 2012).
